Literature values as cited in patent publication US6352979B1, “Method of treating snakebite and complications resulting therefrom” (priority 2001, dated 2002).

How the values were obtained:
[1] = test system: dogs; details: doses higher than 3750 mg/kg (accepted oral LD50 for common table salt)
[2] = test system: humans; details: doses exceeding 40 g/m^2
[3] = test system: mice; details: doses higher than 3750 mg/kg (accepted oral LD50 for common table salt)

Q: For `O=S(=O)([O-])CCSSCCS(=O)(=O)[O-].[Na+].[Na+]` [Dimesna, disodium 2,2′-dithiobis ethane sulfonate], which “adverse effects after intravenous administration” value [1] is on record?
A: no adverse effects

Q: What about the “adverse effects after administration to humans” value [2] of the same compound?
A: no adverse effects

Q: And the “adverse effects after intravenous administration” value [3]?
A: no adverse effects

Q: For `[Cl-].[Na+]` [common table salt], which “accepted oral LD50” value is on record?
A: 3750 mg/kg
